Source: patent US20240226041A1, “METHODS AND COMPOSITIONS FOR TREATMENT OF NEUROPATHIC PAIN USING STAT3 INHIBITORS” (priority 2021, published 2024)
Entries after “also recorded” stand apart in the source; their conditions may differ.

What was measured:
[1] = Glutathione reaction study (UV-HPLC stability with GSH); assay type: physicochemical; settings: 100 μM in 50 mM HEPES pH 7.5, 10 mM GSH, 50 minutes after exposure
Experimental: The AUC of each compound measured at the times indicated by UV-HPLC and expressed as percent of the starting AUC of the peaks. Data are representative of four independently performed experiments.
Each reaction mixture was sampled at time 0 and every 5 minutes for 50 minutes; all samples were analyzed by HPLC. The amount of unreacted inhibitor was determined by measuring the area under the curve (AUC) and plotting this value as a percentage of the starting AUC as a function of time (FIG. 3). […] In contrast, there was no loss of TTI-101 in the presence of GSH.
Glutathione reaction studies. STAT3 inhibitors (10 ul of 10 mM stock in DMSO) were spiked into reaction buffer [50 mM HEPES pH7.5 containing 10 mM reduced glutathione (GSH)] the samples were mixed thoroughly and placed in an autosampler set at 20° C. The reactions were monitored by high performance liquid chromatography (HPLC) using an Exion LC Sciex unit equipped with a UV detector. The stationary phase used was a C18 Synergi™ 4 μm Fusion-RP 80 Å LC column (50×2 mm); the mobile phase was water (A) and acetonitrile (B). The elution process consisted of an isocratic step with 20% mobile phase B, followed by 80% B, for 2 minutes. The flow rate was maintained at 0.5 mL/min during the run. Measurements were conducted at intervals of 5 minutes for a period of 55 minutes total. The presence of the STAT3 inhibitors were quantified by calculating the area under the curves (AUCs) of the compound peaks at 260-295 nm.

[2] = tested on: DRG neurons; experiment: Example 4: DRG neuron Ca2+ flux and multi-electrode array recording, SNI mice; assay type: cell-based, mouse; settings: SNI mice with/without TTI-101 treatment
Experimental: Spontaneous and evoked Ca^2+ flux in DRG neuron cultures is assessed. […] Electrical activity is assessed ex vivo using multi-electrode array recording. […] Assessment of Ca^2+ flux allows activity assessment with single cell resolution, which is important in a heterogeneous sensory population. Calcium imaging also serves as a more direct indicator of disruptions to calcium homeostasis i.e. mitochondrial dysfunction, which may result from injury and/or prolonged neuroinflammation. Electrical activity assessment can be carried out longitudinally and is a more proximate indicator of the likely level of sensory input driving neuropathic pain.

[3] = tested on: male C57BL/6 mice; experiment: Cisplatin model of chemotherapy-induced peripheral neuropathy (CIPN), von Frey mechanical allodynia; assay type: in vivo, mouse; settings: 50 mg/kg i.p. every other day
Experimental: Data were analyzed by two-way ANOVA repeated measures. Time: P<0.001; Group: P<0.001; Interaction P<0.001. **P<0.01 Tukey multiple comparison test. Data are from a representative experiment out of two with similar results.
Male C57/B16 mice (n=4 per group) were treated with cisplatin (two rounds of 5 daily doses of 2.3 mg/kg i.p. followed by 5 days of rest). […] Data were analyzed by two-way ANOVA repeated measures. Time: P<0.001; Group: P<0.001; Interaction P<0.01. **P<0.01 Tukey multiple comparison test.
Peripheral neuropathy has been observed with several small-molecule STAT3 inhibitors in clinical-stage development (Bendell et al., 2014; Genini et al., 2017; Ogura et al., 2015). […] This model was selected because it was shown previously that it is mediated by mitochondrial damage in the peripheral nervous system (Krukowski et al., 2017; Maj, Ma, Krukowski, Kavelaars & Heijnen, 2017). […] (FIG. 12).
Pain measurements and chemotherapy-induced peripheral neuropathy (CIPN).

[4] = tested on: C57BL/6 mice; experiment: Example 3: mouse SNI model, pain behavior, barrier function, leukocyte infiltration, inflammatory mediators; assay type: in vivo
Experimental: SNI surgery is carried out in C57BL/6 mice as previously described. Analgesia is limited to perioperative administration of buprenorphine SR (0.05 mg/kg SQ). […] Animals then are examined for behavioral pain sensitivity. Plantar mechanical sensitivity is assessed using hind paw stimulation with von Frey filaments. Frequency of hindlimb withdrawal in response to application of filaments of increasing force is used as a readout of mechanical sensitivity. Plantar cold sensitivity is tested using the plantar cold assay, in which hindpaw withdrawal in response to a cooling source is used as a readout of cold sensitivity. Testing is carried out after habituation at baseline (prior to surgery), then once weekly for 8 weeks following surgery. Daily testing of von Frey and cold sensitivity is carried out during the TTI-101 treatment window. Additional behavioral testing occurs weekly to more extensively validate analgesic efficacy and functional recovery. The mechanical conflict-avoidance (MCA) test uses a chamber of blunt probes to measure aversion to hindpaw mechanical stimuli and serves as an additional assessment of mechanical sensitivity. Plantar cold sensitivity is measured using the thermal gradient ring assay, which uses a temperature gradient to measure temperature preference/aversion. Finally, paw placement and other gait parameters are assessed using digital gait analysis (Catwalk XT) and a burrowing activity assay (spontaneous clearing of bedding material from a tube). […] All experiments are performed by observers blinded to the genotype and drug formulation administered. This additional behavioral testing is done from baseline (8 weeks)—prior to nerve injury—then weekly thereafter until 16 weeks of age. Mice are euthanized humanely by cardiac puncture and necropsy performed to remove the contralateral and ipsilateral sciatic nerves (SN) and dorsal root ganglia (DRG). […] Anticoagulated blood at both time points is used to measure levels of pro- and anti-inflammatory cytokines, including IL-4, IL-6, IL-10, IL-13, TGF-β and IFN-γ by Luminex. One portion of each SN and DRG is snap-frozen and another portion placed in formalin, then paraffin imbedded (FFPE). Cryotome sections of snap-frozen tissues are used to generate protein lysates for measurement of pY-STAT3, IL-1B and IL-6 by Luminex and Western blotting. […] Snap-frozen tissues are processed to isolate RNA for RNA sequencing (RNA-seq) analysis. Microtome sections of FFPE blocks are H&E stained and undergo immunohistochemistry staining and scoring for pY-STAT3, CD68 (macrophages), PGP9.5 (sensory nerves) and GAP43 (regenerating nerves). Detection of oxidative stress in sciatic nerve and DRG via IHC for nitrotyrosine, 4-hydroxynonenal and MnSOD is carried out. Vascular endothelium permeability in nerve is determined by quantifying the extravasation of the fluorescent dye sodium fluorescein. Cross-sections of the nerve are quantified using the EVOS fluorescence microscope, and mean fluorescence intensity and the percent area positive are determined using NIH ImageJ software. In a subset of mice, characterization of SN and DRG macrophage phenotype are analyzed using flow cytometry with conjugated antibodies against CD86, F4/80, CD163 and CD206.

[5] = tested on: rats; settings: rat, in vivo; cited from earlier work
[6] = 100 mg/kg oral gavage daily for 5 days

Compound: COc1ccc(S(=O)(=O)Nc2cc(-c3c(O)ccc4ccccc34)c(O)c3ccccc23)cc1 [TTI-101]
- loss of inhibitor in the presence of GSH [1]: no loss
- spontaneous activity and baseline cytosolic Ca2+ concentration in DRG neurons ipsilateral to injury [2]: reverses elevations
- dose after which maximal inhibition of allodynia was obtained [3]: after the 4th dose
- time after last dose at which mechanical allodynia returned to levels of cisplatin alone ([3]; 7 doses): 4 days
- cisplatin-induced mechanical allodynia ([3]; 7 doses, after two cycles of cisplatin 2.3 mg/kg): markedly reduced; also recorded: reverses mechanical allodynia caused by cisplatin
- antalgic gait patterns/burrowing aversion [4, 6]: net reduction
- macrophage infiltration of SN and DRG [4, 6]: net reduction
- mechanical and cold hypersensitivity [4, 6]: net reduction
- plasma and tissue levels / pY-STAT3 in macrophages in SN and DRG [4, 6]: achieves levels in the plasma and tissue adequate to reduce levels of pY-STAT3
- RNA-seq gene signatures ([4]; SN and DRG): shifts RNA-seq gene signatures toward a net promotion of M2-like macrophage polarization, improved tight junction/barrier formation, reduced ROS production, and circulating pro-inflammatory markers
- serious toxicity including lactic acidosis [5]: did not demonstrate any serious toxicity including lactic acidosis
